This note sets out measurements from the supplement of paper PMC5412046.

Where a name gives a salt, the structure may show the parent alone.

One experiment concerns SB.mhdgc-1. The experiment in a line: AC50 for growth inhibition (viability) (log10 M); higher = less potent. As to conditions: SB.mhdgc-1 (hereditary c.1380delA CDH1 gastric cancer). Put shortly:
(§1)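 Dosing used a pintool to add 23 nL compound in DMSO to 1536 wells, each with 500 hereditary or sporadic patient-derived gastric cancer cells, across 11 threefold dilutions starting at a final 46 μM. Viability after 48 h was measured by CellTiter-Glo luminescence on a ViewLux. The log half-maximal activity concentration derives from a four-parameter fit of that viability normalised to DMSO, limited to high-quality curve classes.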

The next experiment relates to SB.msgc-1. The description is as above. As to conditions: SB.msgc-1 (sporadic gastric cancer). A digest of the protocol: as §1

Consider `OC1=C(O)C2=C(\C=C/C(=O)O2)C=C1` [Daphnetin], for which the “AC50 for growth inhibition (log10 M)” value with SB.mhdgc-1 is -5.78; with SB.msgc-1, -4.78.
For `N=c1c2c(-c3ccccc3)c(-c3ccccc3)n(Cc3ccccc3)c2ncn1[C@H]1CC[C@H](O)CC1` the same measures were -4.58 and -4.73.
For `c1ccc2c(Cc3c[nH]c4ccccc34)c[nH]c2c1` [Diindolylmethane], the “AC50 for growth inhibition (log10 M)” value was -6.13 in the experiment on SB.mhdgc-1 and -5.63 in the experiment on SB.msgc-1.
For `O=C1Nc2cc(Br)ccc2/C1=C1/Nc2ccccc2/C1=N\O` [BIO] the same measures were -4.78 and -4.98.
For `CCOc1cc(C(=O)Nc2ccc(Cl)c(-c3nc4ccccc4[nH]3)c2)cc(OCC)c1OCC` [SANT-2] the same measures were -5.93 and -5.18.
For `CCOc1cc2c(c(F)c1OCC)C(=N)N(CC(=O)c1cc(N3CCOCC3)c(OC)c(C(C)(C)C)c1)C2` [E5555], in that order: -5.03 and -4.68.
As for `CC(=O)[C@]1(O)Cc2c(O)c3c(c(O)c2[C@@H](O[C@H]2C[C@H](N)[C@H](O)[C@H](C)O2)C1)C(=O)c1ccccc1C3=O` [Idarubicin hydrochloride], the “AC50 for growth inhibition (log10 M)” value in the experiment with SB.mhdgc-1 was -7.38; in the experiment on SB.msgc-1, -6.63.
For `Cc1cc(-c2ncc(CC(=O)Nc3ccc(-c4cnccn4)cn3)cc2C)ccn1` [LGK974] the same measures were -4.88 and -4.78.
In the case of `CCN1CCN(CC1)CC(=O)NC2=CC=C(C3=C2C4=C(S3)C=CC=C4)C5=C6O\C(=C/C(=O)C6=CC=C5)N7CCOCC7`, the “AC50 for growth inhibition (log10 M)” value in the experiment with SB.mhdgc-1 was -5.73; with SB.msgc-1, -5.68.
Take `CC1=C(/C=C/C(C)=C/C=C/C(C)=C/C(=O)Nc2ccc(O)cc2)C(C)(C)CCC1` [Fenretinide]: the “AC50 for growth inhibition (log10 M)” value is -4.67 in the experiment on SB.mhdgc-1 and -4.52 with SB.msgc-1.
For `C=C1/C(=C\C=C2/CCC[C@]3(C)[C@@H]([C@H](C)CCCC(C)(C)O)CC[C@@H]23)C[C@@H](O)C[C@@H]1O` [Calcitriol] the same measures were -6.53 and -5.63.
For `COc1ccc(Nc2cc(-c3cnc(N)nc3)nc(N3CCOCC3)n2)cn1` [NIBR-17] the same measures were -6.48 and -5.18.
For `NC/1=N/[C@]2(COC[C@H]2CS1)C3=CC(=CC=C3F)NC(=O)C4=NC=C(F)C=C4` the same measures were -5.93 and -5.48.
Regarding `NC(=O)Nc1cc(-c2ccc(CN3CCOCC3)cc2)sc1C(N)=O` [AZ-TAK1 Inhibitor], the “AC50 for growth inhibition (log10 M)” value with SB.mhdgc-1 is -4.68; in the experiment with SB.msgc-1 it was -4.73.
For `CN(C)CC(C)(C)CNc1nn2c(-c3ccccc3)nnc2cc1C1CCC1` [Akt-I-1] the same measures were -6.33 and -4.68.
For `COc1cc(Oc2ccnc3cc(OC)c(OC)cc23)ccc1NC(=O)NC(C)c1nccs1` (centres undefined), in that order: -4.73 and -4.78.
As to `CC1(C)S[C@H]2[C@H](NC(=O)[C@@H](N)C3=CC=C(O)C=C3)C(=O)[N@]2[C@H]1C(O)=O` [Amoxicillin sodium], the results for the “AC50 for growth inhibition (log10 M)” value in the experiment on SB.mhdgc-1 and with SB.msgc-1 were -5.53 and -5.08, respectively.
For `CCNC(=O)Nc1ccc(-c2nc3c(c(N4CCOC[C@@H]4C)n2)CCN(C2COC2)C3)cc1` [GDC-0349], in that order: -5.28 and -4.83.
For `O=C(CCc1ccc(O)cc1)c1c(O)cc(O)cc1O` [Phloretin], in that order: -7.33 and -7.13.
For `Cc1ccc(NC(=O)Nc2cc(C(F)(F)F)ccc2F)cc1Nc1ccc2c(c1)NC(=O)/C2=C\c1ccc[nH]1` [GNF-5837] the same measures were -4.83 and -4.73.
Consider `C=C1C(=O)O[C@@H]2[C@H]3O[C@]3(C)CC/C=C(\C)CC[C@@H]12` [Parthenolide], for which the “AC50 for growth inhibition (log10 M)” value with SB.mhdgc-1 is -5.18; with SB.msgc-1, -4.83.
In the case of `c1ccc(CNc2nc(NCc3ccccc3)c3ccccc3n2)cc1`, the “AC50 for growth inhibition (log10 M)” value in the experiment on SB.mhdgc-1 and with SB.msgc-1 was -5.03 in each case.
On to `COc1cccc2cc(-c3nc(C4CCC(C(=O)O)CC4)n4ncnc(N)c34)[nH]c12` (centres undefined) [OSI-027], for which the “AC50 for growth inhibition (log10 M)” value with SB.mhdgc-1 is -7.58; in the experiment with SB.msgc-1 it was -5.33.
For `CC1=CC=C(C=C1)N(C\C2=N\CCN2)C3=CC=CC(=C3)O` [Phentolamine mesilate] the same measures were -4.98 and -4.68.
For `Nc1nc(Cl)nc2c1ncn2[C@@H]1O[C@H](CO)[C@@H](O)[C@@H]1F` [Clofarabine], in that order: -7.83 and -8.28.
For `COc1cc2c(cc1OC)CN(CCc1ccc(NC(=O)c3cc(OC)c(OC)cc3NC(=O)c3cnc4ccccc4c3)cc1)CC2` [Tariquidar] the same measures were -5.03 and -5.08.
In the case of `OC[C@H]1O[C@H](C[C@@H]1O)N2/C=C(C(=O)NC2=O)/C(F)(F)F` [Trifluridine], the “AC50 for growth inhibition (log10 M)” value with SB.mhdgc-1 was -6.48; with SB.msgc-1, -5.78.
For `Nc1ccc(C(=O)Nc2cccc(-c3nc(N4CCOCC4)c4oc5ncccc5c4n3)c2)cn1`, in that order: -5.38 and -5.18.
On to `Cc1nc2ccc(CN(C)c3ccc(C(=O)N[C@@H](CCC(=O)O)C(=O)O)s3)cc2c(=O)[nH]1` [Raltitrexed], for which the “AC50 for growth inhibition (log10 M)” value in the experiment on SB.mhdgc-1 was -7.48; with SB.msgc-1 it was -7.28.
Take `OCCNC1CCCc2c1[nH]c1ccc(-c3ccccc3)cc21` (centres undefined) [CASIN]: the “AC50 for growth inhibition (log10 M)” value in the experiment on SB.mhdgc-1 is -4.73; in the experiment on SB.msgc-1 it was -4.63.
For `O=C1CSC(=O)N1C(CCc1ccncc1)COc1ccc(-c2cccc([N+](=O)[O-])c2)cc1` (centres undefined) the same measures were -5.88 and -5.78.
Consider `C[S+](=O)([O-])Oc1ccc2c(NC(N)=O)c(C(=O)c3ccc(Cl)cc3Cl)oc2c1` [Lirimilast], for which the “AC50 for growth inhibition (log10 M)” value in the experiment with SB.mhdgc-1 is -6.08; with SB.msgc-1, -5.53.
For `C[C@]12CC[C@H]3[C@@H](CC[C@H]4NC(=O)\C=C/[C@]34C)[C@@H]1CC[C@@H]2C(=O)NC5=CC(=CC=C5C(F)(F)F)C(F)(F)F` [Dutasteride] the same measures were -4.78 and -4.93.
Turning to `CN1CC[C@H]([C@@H](O)C1)C2=C(O)C=C(O)C3=C2O\C(=C/C3=O)C4=CC=CC=C4Cl`, the “AC50 for growth inhibition (log10 M)” value is -7.08 in the experiment with SB.mhdgc-1 and -7.13 with SB.msgc-1.
For `COc1cc2ncnc(-n3nc(-c4ccccn4)nc3N)c2cc1OC` the same measures were -5.03 and -4.78.
Take `CC(C)CNc1ccnc(NCc2csc(-c3ccccc3)n2)n1` [KHS101]: the “AC50 for growth inhibition (log10 M)” value in the experiment on SB.mhdgc-1 and with SB.msgc-1 was -4.78 throughout.
For `CN(C)c1ccc(C(=O)NCCCCCCC(=O)NO)cc1` [M344], the figures for the “AC50 for growth inhibition (log10 M)” value in the experiment with SB.mhdgc-1 and in the experiment with SB.msgc-1 were -5.83 and -6.08, respectively.
In the case of `Oc1c(Cl)cc(Cl)c2cccnc12` [Chloroxine], the “AC50 for growth inhibition (log10 M)” value is -4.93 in the experiment with SB.mhdgc-1 and -4.68 with SB.msgc-1.
For `O=C(NC1CC1)c1cccc(-c2ccc3c(NC(=O)C4CC4)n[nH]c3c2)c1`, in that order: -5.93 and -6.03.
For `CNC(=O)c1ccc(Nc2cc(Nc3ccccc3[S+](=O)([O-])C(C)C)c3cc[nH]c3n2)nc1`, in that order: -4.78 and -4.68.
Turning to `F\C1=C\NC(=O)NC1=O` [Fluorouracil], the “AC50 for growth inhibition (log10 M)” value was -6.43 with SB.mhdgc-1 and -5.28 in the experiment with SB.msgc-1.
For `CCN(CC)CCCCNc1nc2cc(Cl)c(Cl)cc2nc1-c1ccc(-c2cccs2)s1` the same measures were -5.03 and -4.68.
For `C=CCNc1c(O)cc2c(O)c1C[C@@H](C)C[C@H](OC)[C@H](O)[C@@H](C)/C=C(/C)[C@H](OC(N)=O)[C@@H](OC)/C=C\C=C(\C)C(=O)N2` [Retaspimycin] the same measures were -6.88 and -7.48.
Take `O=C(CCCCCCC(=O)Nc1ccc([C@H]2O[C@@H](CSc3nc(-c4ccccc4)c(-c4ccccc4)o3)C[C@@H](c3ccc(CO)cc3)O2)cc1)NO` [Tubacin]: the “AC50 for growth inhibition (log10 M)” value with SB.mhdgc-1 was -4.73; in the experiment on SB.msgc-1 it was -4.58.
Consider `CCC(=O)NC[C@H](Cc1ccc(OCCc2nc(-c3ccccc3)oc2C)cc1)N/C(C)=C\C(=O)c1ccc(C(F)(F)F)cc1` [GW-6471], for which the “AC50 for growth inhibition (log10 M)” value in the experiment with SB.mhdgc-1 is -5.48; in the experiment on SB.msgc-1, -4.73.
For `Cc1ccc(C(=O)Nc2cccc(C(F)(F)F)c2)cc1Nc1nc(-c2cccnc2)nc2c1cnn2C` [NVP-BHG712] the same measures were -4.83 and -4.78.
For `OC[C@H]1O[C@@H](Oc2ccc(O)cc2)[C@H](O)[C@@H](O)[C@@H]1O` [Arbutin] the same measures were -4.93 and -4.78.
